Paper PMC12627007, “HIV nucleocapsid proteins as targets for novel 1,2-benzisothiazol-3(2H)-one benzenesulfonamides: synthesis and antiretroviral activity” (Frontiers in Microbiology, 2025)

Tests used:
Assay type in all cases: cell-based
[1] = Cytotoxicity in mock-infected MT-4 cells (MTT method); conditions: human
Procedure: The activity of the test compounds against the replication of HIV-1 wt and mutant strains (N119, A17, EFV^R, AZT^R, MDR, SAQ^R) and HIV-2 wt in acutely infected cells was based on the inhibition of virus-induced cytopathogenicity in MT-4 and C8166 cells, respectively. Briefly, 50 μL of culture medium containing 1 × 10^4 cells was added to each well of flat-bottom microtitre trays containing 50 μL of culture medium with or without different serial concentrations of test compounds. Then, 20 μL of an HIV suspension (containing the appropriate amount of CCID50 required to cause complete cytopathogenicity on day 4, final multiplicity of infection [m.o.i.] 0.01) was added. After incubation at 37 °C, cell viability was determined using the […] (MTT) method ([Pauwels et al., 1988]). The cytotoxicity of the test compounds was evaluated in parallel with their antiviral activity through the viability of mock-infected, treated cells, as monitored by the MTT method and described elsewhere ([Morellet et al., 1994]).

[2] = tested on: HIV-1 N119 (Y181C); experiment: Inhibition of virus-induced cytopathogenicity in MT-4 cells, NNRTI-resistant mutant N119; conditions: for EC50: Human immunodeficiency virus 1, MT4, read-out: EC50 N119; for Selectivity Index (SI = CC50/EC50) N119: in round brackets
Procedure: (§1) HIV-1IIIB and HIV-2 CBL-20 strains were obtained from the supernatants of persistently infected H9/IIIB and CEM cells, respectively. HIV-1 and HIV-2 stock solutions had titres of 4.5 × 10^7 and 1.4 × 10^6 50% cell culture infectious doses (CCID50)/ml, respectively. […] The K103R + V179D + P225H mutant (EFVR) was derived from an IIIB strain passaged in MT-4 cells in the presence of Efavirenz (up to 2 μM). N119, A17 and EFV^R stock solutions had titres of 1.2 × 10^8, 2.1 × 10^7, and 4.0 × 10^7 CCID50/ml, respectively.
(§2) The activity of the test compounds against the replication of HIV-1 wt and mutant strains (N119, A17, EFV^R, AZT^R, MDR, SAQ^R) and HIV-2 wt in acutely infected cells was based on the inhibition of virus-induced cytopathogenicity in MT-4 and C8166 cells, respectively. Briefly, 50 μL of culture medium containing 1 × 10^4 cells was added to each well of flat-bottom microtitre trays containing 50 μL of culture medium with or without different serial concentrations of test compounds. Then, 20 μL of an HIV suspension (containing the appropriate amount of CCID50 required to cause complete cytopathogenicity on day 4, final multiplicity of infection [m.o.i.] 0.01) was added.

[3] = tested on: HIV-1 IIIB strain; experiment: microbe, parasite or virus in culture; conditions: for EC50: Human immunodeficiency virus 1, IIIB, MT4, read-out: EC50 HIV-1; for Selectivity Index (SI = CC50/EC50) HIV-1: IIIB strain, in round brackets
Procedure: as §1, §2

[4] = tested on: HIV-1 AZTR (67N, 70R, 215F, 219Q); experiment: Inhibition of virus-induced cytopathogenicity in MT-4 cells, NRTI-resistant mutant AZTR; conditions: for EC50: Human immunodeficiency virus 1, MT4, read-out: EC50 AZTR; for Selectivity Index (SI = CC50/EC50) AZTR: in round brackets
Procedure: as §1, §2

[5] = tested on: HIV-1 MDR (74V, 41L, 106A, 215Y); experiment: Inhibition of virus-induced cytopathogenicity in MT-4 cells, NRTI-resistant mutant MDR; conditions: for EC50: Human immunodeficiency virus 1, MT4, read-out: EC50 MDR; for Selectivity Index (SI = CC50/EC50) MDR: in round brackets
Procedure: as §1, §2

[6] = tested on: HIV-1 A17 (K103N + Y181C); experiment: Inhibition of virus-induced cytopathogenicity in MT-4 cells, NNRTI-resistant mutant A17; conditions: for EC50: Human immunodeficiency virus 1, MT4, read-out: EC50 A17; for Selectivity Index (SI = CC50/EC50) A17: in round brackets
Procedure: as §1, §2

[7] = tested on: HIV-1 SAQR (L10F, G48V, L90M); experiment: Inhibition of virus-induced cytopathogenicity in MT-4 cells, PRI-resistant mutant SAQR; conditions: for EC50: Human immunodeficiency virus 1, MT4, read-out: EC50 SAQR; for Selectivity Index (SI = CC50/EC50) SAQR: in round brackets
Procedure: as §1, §2

[8] = tested on: HIV-1 EFVR (K103R + V179D + P225H); experiment: Inhibition of virus-induced cytopathogenicity in MT-4 cells, NNRTI-resistant mutant EFVR; conditions: for EC50: Human immunodeficiency virus 1, MT4, read-out: EC50 EFVR; for Selectivity Index (SI = CC50/EC50) EFVR: in round brackets
Procedure: as §1, §2

SMILES	CC50 at 4 days [1]	EC50 [2]	Selectivity Index (SI = CC50/EC50) N119 [2]	EC50 [3]	Selectivity Index (SI = CC50/EC50) HIV-1 [3]	EC50 [4]	EC50 [5]	EC50 [6]	Selectivity Index (SI = CC50/EC50) A17 [6]	EC50 [7]	EC50 [8]	Selectivity Index (SI = CC50/EC50) EFVR [8]	Selectivity Index (SI = CC50/EC50) AZTR [4]	Selectivity Index (SI = CC50/EC50) MDR [5]	Selectivity Index (SI = CC50/EC50) SAQR [7]
O=c1c2ccccc2sn1NS(=O)(=O)c1ccc([N+](=O)[O-])cc1 [Compound 8, 4-Nitro-N-(3-oxo-1,2-benzisothiazol-2(3H)-yl)benzenesulfonamide]	> 100 µM	7 ± 0.5 µM	> 14	15 ± 4 µM	> 7	7 ± 0.7 µM	6 ± 0.5 µM	11 ± 2 µM	> 9	8 ± 1 µM	9 ± 2 µM	> 11			
COc1ccc(S(=O)(=O)Nn2sc3ccccc3c2=O)cc1 [Compound 9, 4-Methoxy-N-(3-oxo-1,2-benzisothiazol-2(3H)-yl)benzenesulfonamide]	56 ± 0.1 µM	6 ± 0.5 µM	9	8 ± 2 µM	7	5 ± 1 µM	6 ± 0.7 µM	8 ± 1 µM	7	7 ± 1 µM	6 ± 0.7 µM	9	11	9	8
O=c1c2ccccc2sn1NS(=O)(=O)c1ccccc1F [Compound 10, 2-Fluoro-N-(3-oxo-1,2-benzisothiazol-2(3H)-yl)benzenesulfonamide]	> 100 µM	6 ± 3 µM	> 16	7 ± 0.8 µM	> 14	6 ± 0.5 µM	5 ± 0.5 µM	7 ± 0.7 µM	> 14	7 ± 1 µM	5 ± 2 µM	> 20	> 16	> 20	> 14
O=c1c2ccccc2sn1NS(=O)(=O)c1ccc(F)cc1 [Compound 11, 4-Fluoro-N-(3-oxo-1,2-benzisothiazol-2(3H)-yl)benzenesulfonamide]	50 ± 4 µM	5 ± 0.5 µM	10	5 ± 2 µM	10	5 ± 0.5 µM	6 ± 0.5 µM	5 ± 0.2 µM	10	4 ± 0.7 µM	2 ± 0.7 µM	25	10	8	12
O=c1c2ccccc2sn1NS(=O)(=O)c1ccccc1Cl [Compound 12, 2-Chloro-N-(3-oxo-1,2-benzisothiazol-2(3H)-yl)benzenesulfonamide]	73 ± 3 µM	7 ± 0.7 µM	10	13 ± 2 µM	5	9 ± 0.7 µM	7 ± 1 µM	11 ± 2 µM	6	9 ± 2 µM	9 ± 0.5 µM	8	8	7	8
O=c1c2ccccc2sn1NS(=O)(=O)c1ccc(Cl)cc1 [Compound 13, 4-Chloro-N-(3-oxo-1,2-benzisothiazol-2(3H)-yl)benzenesulfonamide]	33 ± 0.1 µM	6 ± 0.9 µM	5	11 ± 4 µM	3	7 ± 1 µM	7 ± 2 µM	8 ± 1.4 µM	4	8 ± 2 µM	3 ± 1 µM	10	4	4	4
O=c1c2ccccc2sn1NS(=O)(=O)c1cccc(Cl)c1 [Compound 14, 3-Chloro-N-(3-oxo-1,2-benzisothiazol-2(3H)-yl)benzenesulfonamide]	40 ± 2 µM	7 ± 1.4 µM	5	5 ± 1 µM	8	6 ± 0.7 µM	6 ± 1 µM	3 ± 1 µM		4 ± 0.7 µM	7 ± 1 µM		6	6	10
O=c1c2ccccc2sn1NS(=O)(=O)c1ccc(Cl)c(Cl)c1 [Compound 15, 3,4-Dichloro-N-(3-oxo-1,2-benzisothiazol-2(3H)-yl)benzenesulfonamide]	66 ± 3 µM	7 ± 0.1 µM	9	15 ± 4 µM	4	6 ± 1 µM	11 ± 3 µM	8 ± 2 µM	8	8 ± 2 µM	8 ± 1.5 µM	8	11	6	8
O=c1c2ccccc2sn1NS(=O)(=O)c1cc(Cl)cc(Cl)c1 [Compound 16, 3,5-Dichloro-N-(3-oxo-1,2-benzisothiazol-2(3H)-yl)benzenesulfonamide]	86 ± 1 µM	7 ± 0.4 µM	12	16 ± 5 µM	5	8 ± 0.7 µM	13 ± 2 µM	11 ± 2 µM	7	12 ± 2 µM	10 ± 3 µM	8	10	6	7
O=c1c2cc(Cl)ccc2sn1NS(=O)(=O)c1ccccc1Cl [Compound 18, 2-Chloro-N-(5-chloro-3-oxo-1,2-benzisothiazol-2(3H)-yl)benzenesulfonamide]	> 100 µM	14 ± 1 µM	> 5	16 ± 3 µM	> 6	12 ± 2 µM	16 ± 2 µM	20 ± 4 µM	> 5	15 ± 3 µM	7 ± 2 µM	> 14	> 8	> 6	> 6
O=c1c2ccccc2sn1N(S(=O)(=O)c1ccccc1)S(=O)(=O)c1ccccc1 [Compound 20, N-(3-oxo-1,2-benzisothiazol-2(3H)-yl)-N-(phenylsulfonyl)benzenesulfonamide]	> 100 µM	23 ± 1 µM		22 ± 3.5 µM		20 ± 2 µM	19 ± 1 µM	25 ± 2 µM	> 4	25 ± 3 µM	22 ± 1 µM	> 4	> 5	> 5	> 4
Cc1ccc(S(=O)(=O)N(n2sc3ccccc3c2=O)S(=O)(=O)c2ccc(C)cc2)cc1 [Compound 21, 4-Methyl-N-[(4-methylphenyl)sulfonyl]-N-(3-oxo-1,2-benzisothiazol-2(3H)-yl)benzenesulfonamide]	> 100 µM	44 µM		76 µM		70 µM	63 µM	58 µM		63 µM	70 µM				
